From PubChem BioAssay (NCI)
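Dose response: 5 concentrations. Exposure: 48 h. Format: 96-well plates. Endpoint: linear interpolation; highest concentration if not reached. Definition used: TGI = concentration required for complete inhibition of growth.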

Assays:
Assay in all cases: NCI tumour cell line growth inhibition, 48 h
[1] = system: NCI-H460 lung
[2] = system: HT29 colon
[3] = system: OVCAR-3 ovarian
[4] = system: SF-268 CNS
[5] = system: UACC-257 melanoma
[6] = system: HCC-2998 colon
[7] = system: DU-145 prostate
[8] = system: HOP-62 NSCLC
[9] = system: SNB-19 CNS
[10] = system: UACC-62 melanoma
[11] = system: SW-620 colon
[12] = system: ACHN renal
[13] = system: PC-3 prostate
[14] = system: MDA-N
[15] = system: LOX IMVI melanoma
[16] = system: OVCAR-8 ovarian
[17] = system: HCT-116 colon
[18] = system: KM12 colon
[19] = system: SK-MEL-5 melanoma
[20] = system: 786-0 renal
[21] = system: SN12C renal
[22] = system: COLO 205 colon
[23] = system: MALME-3M melanoma
[24] = system: HL-60(TB) leukemia
[25] = system: RXF 393 renal
[26] = system: RPMI-8226 leukemia
[27] = system: TK-10 renal
[28] = system: NCI-H522 lung
[29] = system: U251 CNS
[30] = system: UO-31 renal
[31] = system: MCF7 breast
[32] = system: CAKI-1 renal
[33] = system: HS 578T breast
[34] = system: OVCAR-5 ovarian
[35] = system: M14 melanoma
[36] = system: HOP-92 NSCLC
[37] = system: A549 NSCLC
[38] = system: K-562 leukemia
[39] = system: HCT-15 colon
[40] = system: SK-MEL-28 melanoma
[41] = system: BT-549 breast
[42] = system: SK-OV-3 ovarian
[43] = system: SF-295 CNS
[44] = system: MDA-MB-231 breast
[45] = system: OVCAR-4 ovarian
[46] = system: SF-539 CNS
[47] = system: NCI/ADR-RES ovarian
[48] = system: IGROV1 ovarian
[49] = system: CCRF-CEM leukemia
[50] = system: SR leukemia
[51] = system: SNB-75 CNS
[52] = system: NCI-H226 lung
[53] = system: A498 renal
[54] = system: MDA-MB-435
[55] = system: SK-MEL-2 melanoma
[56] = system: NCI-H23 lung
[57] = system: T-47D breast
[58] = system: MOLT-4 leukemia
[59] = system: EKVX NSCLC

In the case of `CC12OC1(C)C1C(=O)OCC1C2=O` (stereo not given), the TGI [1] is reported as over 100 µM, the TGI [2] is reported as over 100 µM and the TGI [3] is reported as over 100 µM. The TGI [4] was over 100 µM, the TGI [5] was over 100 µM and the TGI [6] was over 100 µM. The TGI [7] was over 100 µM, the TGI [8] was over 100 µM and the TGI [9] was over 100 µM. For the same molecule, the TGI [10] was over 100 µM, the TGI [11] was over 100 µM and the TGI [12] was over 100 µM. It also gave a TGI [13] of over 100 µM, a TGI [14] of over 100 µM and a TGI [15] of over 100 µM. The TGI [16] was over 100 µM, the TGI [17] was over 100 µM and the TGI [18] was over 100 µM. It also gave a TGI [19] of over 100 µM, a TGI [20] of over 100 µM and a TGI [21] of 55.4 µM. The TGI [22] was over 100 µM, the TGI [23] was 69.7 µM and the TGI [24] was 54.3 µM. For the same molecule, the TGI [25] was 84.6 µM, the TGI [26] was over 100 µM and the TGI [27] was over 100 µM. The TGI [28] was 27.9 µM, the TGI [29] was over 100 µM and the TGI [30] was over 100 µM. The TGI [31] was over 100 µM, the TGI [32] was 71.5 µM and the TGI [33] was 94.1 µM. It also gave a TGI [34] of over 100 µM, a TGI [35] of over 100 µM and a TGI [36] of over 100 µM. For the same molecule, the TGI [37] was over 100 µM, the TGI [38] was 72.4 µM and the TGI [39] was over 100 µM. The TGI [40] was over 100 µM, the TGI [41] was over 100 µM and the TGI [42] was over 100 µM. It also gave a TGI [43] of over 100 µM, a TGI [44] of over 100 µM and a TGI [45] of over 100 µM. It also gave a TGI [46] of over 100 µM, a TGI [47] of over 100 µM and a TGI [48] of over 100 µM. It also gave a TGI [49] of 36 µM, a TGI [50] of 69.2 µM and a TGI [51] of over 100 µM. It also gave a TGI [52] of over 100 µM, a TGI [53] of over 100 µM and a TGI [54] of over 100 µM. The TGI [55] was over 100 µM and the TGI [56] was over 100 µM.

For `Clc1ccccc1/C=C\C1(c2ccccc2)OCCO1`, the TGI [1] was 32.7 µM, the TGI [2] was 33.2 µM and the TGI [3] was 31.6 µM. It also gave a TGI [4] of 29.2 µM, a TGI [5] of 31.7 µM and a TGI [6] of 31.9 µM. It also gave a TGI [57] of 43.4 µM, a TGI [7] of 30.3 µM and a TGI [58] of 73.4 µM. The TGI [8] was 39.8 µM, the TGI [10] was 29.5 µM and the TGI [11] was 43.3 µM. For the same molecule, the TGI [12] was 31.4 µM, the TGI [14] was 30.2 µM and the TGI [15] was 23.7 µM. It also gave a TGI [16] of 34.3 µM, a TGI [17] of 25.2 µM and a TGI [18] of 23.7 µM. For the same molecule, the TGI [19] was 38.6 µM, the TGI [20] was 31.1 µM and the TGI [21] was 32.7 µM. It also gave a TGI [59] of 36 µM, a TGI [22] of 40.2 µM and a TGI [24] of 73.9 µM. It also gave a TGI [25] of 34.5 µM, a TGI [26] of 23.1 µM and a TGI [27] of 48.4 µM. It also gave a TGI [28] of 29.3 µM, a TGI [29] of 24.8 µM and a TGI [30] of over 100 µM. For the same molecule, the TGI [31] was 7.53 µM, the TGI [32] was 31.3 µM and the TGI [33] was 35.1 µM. The TGI [34] was 44.4 µM, the TGI [35] was over 100 µM and the TGI [36] was over 100 µM. The TGI [37] was over 100 µM, the TGI [38] was over 100 µM and the TGI [39] was 26.3 µM. The TGI [40] was 38 µM, the TGI [42] was 91.3 µM and the TGI [43] was 31.2 µM. The TGI [44] was 26.2 µM, the TGI [45] was 33 µM and the TGI [46] was 53.3 µM. The TGI [47] was 31.5 µM, the TGI [48] was 29.9 µM and the TGI [49] was 53.8 µM. It also gave a TGI [50] of 28.9 µM, a TGI [51] of 34.3 µM and a TGI [52] of 44.3 µM. For the same molecule, the TGI [53] was 35.8 µM, the TGI [54] was 29.6 µM and the TGI [56] was 22.1 µM.
